Experimental data taken from ChEMBL document CHEMBL1143467, “Synthesis of potent and selective serotonin 5-HT1B receptor ligands” (Bioorg Med Chem Lett, 2005).

Columns and labels:
[1] = Affinity towards cloned Nicotinic acetylcholine receptor
[2] = target: T1, 5-hydroxytryptamine receptor 2C (Homo sapiens, UniProt P28335); assay: In vitro binding affinity towards cloned human 5-HT2C receptor using [3H]5-carboximidotryptamine as radioligand
T1 sequence (P28335 whole entry): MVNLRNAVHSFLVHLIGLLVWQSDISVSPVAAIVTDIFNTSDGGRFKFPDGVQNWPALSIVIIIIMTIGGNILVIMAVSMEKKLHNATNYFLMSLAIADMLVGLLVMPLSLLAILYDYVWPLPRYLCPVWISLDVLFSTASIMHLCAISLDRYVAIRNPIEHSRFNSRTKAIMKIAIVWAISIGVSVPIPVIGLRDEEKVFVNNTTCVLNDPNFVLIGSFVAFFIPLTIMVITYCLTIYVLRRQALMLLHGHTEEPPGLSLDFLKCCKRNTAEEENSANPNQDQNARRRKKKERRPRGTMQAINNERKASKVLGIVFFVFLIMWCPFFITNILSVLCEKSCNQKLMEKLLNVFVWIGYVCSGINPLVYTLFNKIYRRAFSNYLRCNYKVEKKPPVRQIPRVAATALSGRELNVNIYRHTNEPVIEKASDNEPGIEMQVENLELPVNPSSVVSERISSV

[3] = target: D(1A) dopamine receptor (Homo sapiens, UniProt P21728); assay: Affinity towards cloned Dopamine receptor D1
Chain of D(1A) dopamine receptor (P21728 whole entry): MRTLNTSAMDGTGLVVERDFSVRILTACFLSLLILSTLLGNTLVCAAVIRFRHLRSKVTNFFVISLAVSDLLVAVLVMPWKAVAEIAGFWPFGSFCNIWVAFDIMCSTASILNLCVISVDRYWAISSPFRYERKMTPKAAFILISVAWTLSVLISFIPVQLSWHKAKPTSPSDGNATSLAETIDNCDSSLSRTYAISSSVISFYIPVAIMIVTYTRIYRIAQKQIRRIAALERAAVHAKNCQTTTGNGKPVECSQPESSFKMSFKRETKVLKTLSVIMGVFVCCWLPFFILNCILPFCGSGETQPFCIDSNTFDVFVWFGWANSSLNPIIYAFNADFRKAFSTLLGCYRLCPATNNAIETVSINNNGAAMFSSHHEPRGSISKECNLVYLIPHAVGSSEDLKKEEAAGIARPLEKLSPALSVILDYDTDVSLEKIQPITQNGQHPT

[4] = target: D(1B) dopamine receptor (Homo sapiens, UniProt P21918); assay: Affinity towards cloned Dopamine receptor D5
Chain of D(1B) dopamine receptor (P21918 whole entry): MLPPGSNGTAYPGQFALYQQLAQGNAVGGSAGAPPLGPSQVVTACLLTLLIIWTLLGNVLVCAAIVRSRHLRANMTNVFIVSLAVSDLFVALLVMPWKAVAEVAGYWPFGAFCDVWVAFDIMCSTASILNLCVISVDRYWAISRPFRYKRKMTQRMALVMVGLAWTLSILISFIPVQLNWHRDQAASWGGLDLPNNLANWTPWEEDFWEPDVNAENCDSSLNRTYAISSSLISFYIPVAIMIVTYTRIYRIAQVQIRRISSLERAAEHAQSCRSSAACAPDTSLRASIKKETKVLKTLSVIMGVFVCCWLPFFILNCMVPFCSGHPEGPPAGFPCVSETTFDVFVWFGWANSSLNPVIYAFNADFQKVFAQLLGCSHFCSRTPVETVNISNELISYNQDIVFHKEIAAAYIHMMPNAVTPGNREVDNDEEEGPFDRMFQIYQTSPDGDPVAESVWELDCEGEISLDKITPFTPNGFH

[5] = target: Muscarinic acetylcholine receptor M3 (Homo sapiens, UniProt P20309); assay: Affinity towards cloned Muscarinic acetylcholine receptor M3
Chain of Muscarinic acetylcholine receptor M3 (P20309 whole entry): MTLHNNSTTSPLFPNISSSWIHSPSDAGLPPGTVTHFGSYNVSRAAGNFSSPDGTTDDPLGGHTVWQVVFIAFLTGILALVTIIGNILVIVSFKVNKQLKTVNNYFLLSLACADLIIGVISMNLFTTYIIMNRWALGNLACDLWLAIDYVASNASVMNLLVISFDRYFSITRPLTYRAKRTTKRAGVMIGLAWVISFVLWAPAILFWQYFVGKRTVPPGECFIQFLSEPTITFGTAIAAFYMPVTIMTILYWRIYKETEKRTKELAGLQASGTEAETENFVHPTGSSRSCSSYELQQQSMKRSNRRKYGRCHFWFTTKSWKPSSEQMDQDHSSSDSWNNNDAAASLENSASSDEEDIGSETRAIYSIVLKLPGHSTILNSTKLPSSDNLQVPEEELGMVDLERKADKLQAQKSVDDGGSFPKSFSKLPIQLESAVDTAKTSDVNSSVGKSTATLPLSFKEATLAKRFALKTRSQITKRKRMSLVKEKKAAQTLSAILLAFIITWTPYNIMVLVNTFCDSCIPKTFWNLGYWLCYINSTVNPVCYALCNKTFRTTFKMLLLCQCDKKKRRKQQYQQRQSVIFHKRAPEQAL

[6] = target: 5-hydroxytryptamine receptor 2A (Homo sapiens, UniProt P28223); assay: In vitro binding affinity towards cloned human 5-HT2A receptor using [3H]5-carboximidotryptamine as radioligand
Chain of 5-hydroxytryptamine receptor 2A (P28223 whole entry): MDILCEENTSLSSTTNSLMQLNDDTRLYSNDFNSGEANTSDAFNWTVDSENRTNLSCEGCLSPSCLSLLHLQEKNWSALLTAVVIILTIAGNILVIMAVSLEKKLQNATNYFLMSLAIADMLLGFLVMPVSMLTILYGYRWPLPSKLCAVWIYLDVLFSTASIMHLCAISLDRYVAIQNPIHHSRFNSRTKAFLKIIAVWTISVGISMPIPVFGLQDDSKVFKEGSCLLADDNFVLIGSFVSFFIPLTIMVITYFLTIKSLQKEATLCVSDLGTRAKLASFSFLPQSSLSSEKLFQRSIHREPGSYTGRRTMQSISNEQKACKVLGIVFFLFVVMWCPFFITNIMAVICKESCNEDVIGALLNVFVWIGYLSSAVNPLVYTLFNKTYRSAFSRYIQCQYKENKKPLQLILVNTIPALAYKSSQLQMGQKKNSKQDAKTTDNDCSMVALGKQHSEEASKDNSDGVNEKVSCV

[7] = target: Histamine H1 receptor (Homo sapiens, UniProt P35367); assay: Affinity towards cloned Histamine H1 receptor
Chain of Histamine H1 receptor (P35367 whole entry): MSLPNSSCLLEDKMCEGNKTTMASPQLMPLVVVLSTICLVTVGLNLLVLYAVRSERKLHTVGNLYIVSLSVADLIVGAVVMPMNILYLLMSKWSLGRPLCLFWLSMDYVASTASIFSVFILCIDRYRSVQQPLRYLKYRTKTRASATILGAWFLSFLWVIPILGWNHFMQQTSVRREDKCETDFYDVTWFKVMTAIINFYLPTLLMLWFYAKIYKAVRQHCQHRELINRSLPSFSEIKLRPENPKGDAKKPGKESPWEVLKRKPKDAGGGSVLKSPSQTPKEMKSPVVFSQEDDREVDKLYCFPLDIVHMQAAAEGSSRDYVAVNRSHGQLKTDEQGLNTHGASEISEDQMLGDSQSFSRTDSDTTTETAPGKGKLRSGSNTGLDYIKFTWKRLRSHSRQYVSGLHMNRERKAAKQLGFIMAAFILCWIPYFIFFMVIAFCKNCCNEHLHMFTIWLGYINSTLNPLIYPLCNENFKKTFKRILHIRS

[8] = target: T2, Muscarinic acetylcholine receptor M5 (Homo sapiens, UniProt P08912); assay: Affinity towards cloned Muscarinic acetylcholine receptor M5
T2 sequence (P08912 whole entry): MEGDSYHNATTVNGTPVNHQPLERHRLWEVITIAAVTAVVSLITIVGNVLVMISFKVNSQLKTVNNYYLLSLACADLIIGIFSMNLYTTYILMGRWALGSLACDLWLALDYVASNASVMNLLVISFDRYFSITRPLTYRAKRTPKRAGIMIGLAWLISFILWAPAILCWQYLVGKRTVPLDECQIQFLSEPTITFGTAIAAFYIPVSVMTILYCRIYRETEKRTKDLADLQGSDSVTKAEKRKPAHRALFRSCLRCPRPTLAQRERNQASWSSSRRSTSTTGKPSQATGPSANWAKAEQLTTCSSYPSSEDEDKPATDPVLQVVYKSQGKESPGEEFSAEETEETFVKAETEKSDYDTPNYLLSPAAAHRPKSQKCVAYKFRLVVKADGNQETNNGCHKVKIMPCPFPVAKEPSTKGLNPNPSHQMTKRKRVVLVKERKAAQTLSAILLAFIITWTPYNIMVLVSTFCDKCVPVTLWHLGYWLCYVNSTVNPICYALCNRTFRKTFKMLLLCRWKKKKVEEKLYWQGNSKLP

[9] = target: Mu-type opioid receptor (Homo sapiens, UniProt P35372); assay: Affinity towards cloned Opioid receptor mu 1
Chain of Mu-type opioid receptor (P35372 whole entry): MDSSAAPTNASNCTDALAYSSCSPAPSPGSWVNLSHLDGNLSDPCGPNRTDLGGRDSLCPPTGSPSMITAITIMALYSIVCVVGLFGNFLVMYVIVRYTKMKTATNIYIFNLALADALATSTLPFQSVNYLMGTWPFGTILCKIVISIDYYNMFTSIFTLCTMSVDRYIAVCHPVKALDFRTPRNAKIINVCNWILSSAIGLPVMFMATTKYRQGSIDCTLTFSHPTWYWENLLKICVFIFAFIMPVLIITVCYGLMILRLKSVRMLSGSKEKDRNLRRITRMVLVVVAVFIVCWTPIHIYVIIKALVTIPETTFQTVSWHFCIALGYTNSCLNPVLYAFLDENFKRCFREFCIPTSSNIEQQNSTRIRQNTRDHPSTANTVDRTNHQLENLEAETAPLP

[10] = target: D(2) dopamine receptor (Homo sapiens, UniProt P14416); assay: Affinity towards cloned Dopamine receptor D2
Chain of D(2) dopamine receptor (P14416 whole entry): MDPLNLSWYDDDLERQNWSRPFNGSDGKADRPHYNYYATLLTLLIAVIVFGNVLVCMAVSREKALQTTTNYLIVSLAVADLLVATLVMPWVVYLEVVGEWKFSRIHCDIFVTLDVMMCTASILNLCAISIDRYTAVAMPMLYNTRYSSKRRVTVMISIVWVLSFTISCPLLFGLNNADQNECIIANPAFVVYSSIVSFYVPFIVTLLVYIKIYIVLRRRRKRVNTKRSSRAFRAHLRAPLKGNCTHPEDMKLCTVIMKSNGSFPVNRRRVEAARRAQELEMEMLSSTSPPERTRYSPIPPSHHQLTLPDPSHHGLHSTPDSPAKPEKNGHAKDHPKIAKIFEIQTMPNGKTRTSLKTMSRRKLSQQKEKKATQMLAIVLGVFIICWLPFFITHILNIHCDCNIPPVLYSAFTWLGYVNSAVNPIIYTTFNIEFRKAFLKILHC

[11] = target: T3, 5-hydroxytryptamine receptor 1A (Homo sapiens, UniProt P08908); assay: Affinity towards cloned human 5-hydroxytryptamine 1A receptor
T3 sequence (P08908 whole entry): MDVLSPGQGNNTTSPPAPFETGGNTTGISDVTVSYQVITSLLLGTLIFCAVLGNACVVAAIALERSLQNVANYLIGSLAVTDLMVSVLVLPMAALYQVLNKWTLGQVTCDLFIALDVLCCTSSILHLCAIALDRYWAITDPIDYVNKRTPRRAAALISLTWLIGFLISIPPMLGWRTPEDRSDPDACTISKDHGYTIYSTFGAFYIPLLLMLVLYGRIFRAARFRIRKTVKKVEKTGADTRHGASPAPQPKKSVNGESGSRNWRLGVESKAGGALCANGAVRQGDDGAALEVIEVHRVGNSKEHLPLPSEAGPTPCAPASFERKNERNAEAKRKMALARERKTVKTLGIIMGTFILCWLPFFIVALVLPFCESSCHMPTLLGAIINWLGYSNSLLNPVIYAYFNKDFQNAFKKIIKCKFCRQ

## COc1ccc(NC(=O)N2CCN(c3ccc(Cl)cc3)CC2)cc1N1CCN(C)CC1
[1]
  Ki: > 10 µM
[2]
  Ki: 0.267 µM
[3]
  Ki: > 10 µM
[4]
  Ki: > 10 µM
[5]
  Ki: > 10 µM
[6]
  Ki: 1.01 µM
[7]
  Ki: > 10 µM
[8]
  Ki: > 10 µM
[9]
  Ki: > 10 µM
[10]
  Ki: > 10 µM

## COc1ccc(NC(=O)N2CCN(c3ccc(SC)cc3)CC2)cc1N1CCN(C)CC1
[1]
  Ki: > 10 µM
[2]
  Ki: 1.14 µM
[3]
  Ki: > 10 µM
[4]
  Ki: > 10 µM
[5]
  Ki: > 10 µM
[6]
  Ki: 1.34 µM
[7]
  Ki: > 10 µM
[8]
  Ki: > 10 µM
[9]
  Ki: > 10 µM
[10]
  Ki: > 10 µM

## COc1ccc(NC(=O)c2ccc(-c3ccc(-c4noc(C)n4)cc3C)cc2)cc1N1CCN(C)CC1 [GR-127935]
[1]
  Ki: > 10 µM
[2]
  Ki: 0.105 µM
[3]
  Ki: > 10 µM
[4]
  Ki: > 10 µM
[5]
  Ki: > 10 µM
[6]
  Ki: 0.0427 µM
[7]
  Ki: > 10 µM
[11]
  Ki: 0.07 µM
[8]
  Ki: > 10 µM
[9]
  Ki: > 10 µM
[10]
  Ki: > 10 µM

## COc1ccccc1N1CCC(C(=O)Nc2ccc(OC)c(N3CCN(C)CC3)c2)CC1
[1]
  Ki: > 10 µM
[2]
  Ki: 9.95 µM
[3]
  Ki: > 10 µM
[4]
  Ki: > 10 µM
[5]
  Ki: > 10 µM
[6]
  Ki: > 10 µM
[7]
  Ki: > 10 µM
[8]
  Ki: > 10 µM
[9]
  Ki: > 10 µM
[10]
  Ki: > 10 µM

## COc1ccc(NC(=O)N2CCN(c3ccccc3F)CC2)cc1N1CCN(C)CC1
[1]
  Ki: > 10 µM
[2]
  Ki: 1.08 µM
[3]
  Ki: > 10 µM
[4]
  Ki: > 10 µM
[5]
  Ki: > 10 µM
[6]
  Ki: > 10 µM
[7]
  Ki: > 10 µM
[8]
  Ki: > 10 µM
[9]
  Ki: > 10 µM
[10]
  Ki: > 10 µM

## COc1ccc(NC(=O)N2CCN(c3ccc(-c4ccccc4)cc3)CC2)cc1N1CCN(C)CC1
[1]
  Ki: > 10 µM
[2]
  Ki: 0.0065 µM
[3]
  Ki: > 10 µM
[4]
  Ki: > 10 µM
[5]
  Ki: > 10 µM
[6]
  Ki: 0.171 µM
[7]
  Ki: > 10 µM
[8]
  Ki: > 10 µM
[9]
  Ki: > 10 µM
[10]
  Ki: > 10 µM

## COc1ccc(NC(=O)N2CCN(c3ccccc3Cl)CC2)cc1N1CCN(C)CC1
[1]
  Ki: > 10 µM
[2]
  Ki: 1.24 µM
[3]
  Ki: > 10 µM
[4]
  Ki: > 10 µM
[5]
  Ki: > 10 µM
[6]
  Ki: 5.99 µM
[7]
  Ki: > 10 µM
[8]
  Ki: > 10 µM
[9]
  Ki: > 10 µM
[10]
  Ki: > 10 µM

## COc1ccc(NC(=O)N2CCN(c3ccc(C(F)(F)F)cc3)CC2)cc1N1CCN(C)CC1
[1]
  Ki: > 10 µM
[2]
  Ki: 2.83 µM
[3]
  Ki: > 10 µM
[4]
  Ki: > 10 µM
[5]
  Ki: > 10 µM
[6]
  Ki: 0.614 µM
[7]
  Ki: > 10 µM
[8]
  Ki: > 10 µM
[9]
  Ki: > 10 µM
[10]
  Ki: > 10 µM

## COc1ccc(NC(=O)N2CCN(c3ccc(F)cc3)CC2)cc1N1CCN(C)CC1
[1]
  Ki: > 10 µM
[2]
  Ki: > 10 µM
[3]
  Ki: > 10 µM
[4]
  Ki: > 10 µM
[5]
  Ki: > 10 µM
[6]
  Ki: 4.45 µM
[7]
  Ki: > 10 µM
[8]
  Ki: > 10 µM
[9]
  Ki: > 10 µM
[10]
  Ki: > 10 µM
